The results in this text go back to US8946266B2, “Substituted triazole and imidazole derivatives as gamma secretase modulators” (Janssen Pharmaceuticals, Inc., priority 2009, dated 2015).

The structures appear in SMILES notation.

One experiment has as its system Aβ42. Put plainly: γ-secretase-modulating activity, Method 1: Aβ42 sandwich ELISA in supernatant of SKNBE2 cells carrying APP 695-wild type (Table 3a). It is filed as cell-based. As to conditions: 18 h, averaged IC50 values. On the procedure: (§1) Pharmacology A) Screening of the Compounds of the Invention for γ-Secretase-Modulating Activity A1) Method 1
(§2) Screening was carried out using SKNBE2 cells carrying the APP 695-wild type, grown in Dulbecco's Modified Eagle's Medium/Nutrient mixture F-12 (DMEM/NUT-mix F-12) (HAM) provided by Gibco (cat no. 31330-38) containing 5% Serum/Fe supplemented with 1% non-essential amino acids. Cells were grown to near confluency.
(§3) The screening was performed using the assay as described in Citron et al (1997) Nature Medicine 3: 67. Briefly, cells were plated in a 96-well plate at about 10^5 cells/ml one day prior to addition of compounds. Compounds were added to the cells in Ultraculture (Lonza, BE12-725F) supplemented with 1% glutamine (Invitrogen, 25030-024) for 18 h. The media were assayed by two sandwich ELISAs, for Aβ42 and Aβtotal. Toxicity of the compounds was assayed by WST-1 cell proliferation reagent (Roche, 1 644 807) according to the manufacturer's protocol.
To quantify the amount of Aβ42 in the cell supernatant, commercially available Enzyme-Linked-Immunosorbent-Assay (ELISA) kits were used (Innotest® β-Amyloid(1-42), Innogenetics N.V., Ghent, Belgium). The Aβ42 ELISA was performed essentially according to the manufacturer's protocol. Briefly, the standards (dilutions of synthetic Aβ1-42) were prepared in polypropylene Eppendorf with final concentrations of 8000 down to 3.9 pg/ml (1/2 dilution step). Samples, standards and blanks (100 μl) were added to the anti-Aβ42-coated plate supplied with the kit (the capture antibody selectively recognizes the C-terminal end of the antigen). The plate was allowed to incubate 3 h at 25° C. in order to allow formation of the antibody-amyloid complex. Following this incubation and subsequent wash steps a selective anti-Aβ-antibody conjugate (biotinylated 3D6) was added and incubated for a minimum of 1 hour (h) in order to allow formation of the antibody-Amyloid-antibody-complex. After incubation and appropriate wash steps, a Streptavidine-Peroxidase-Conjugate was added, followed 30 minutes later by an addition of 3,3′,5,5′-tetramethylbenzidine (TMB)/peroxide mixture, resulting in the conversion of the substrate into a coloured product. This reaction was stopped by the addition of sulfuric acid (0.9 N) and the colour intensity was measured by means of photometry with an ELISA-reader with a 450 nm filter.
To obtain the values reported in Table 3a, the data were calculated as percentage of the maximum amount of amyloid Beta 42 measured in the absence of the test compound. The sigmoidal dose response curves were analyzed using non-linear regression analysis with percentage of the control plotted against the log concentration of the compound. A 4-parameter equation was used to determine the IC50. The values reported in Table 3a are averaged IC50 values.

Experiment [1] concerns Aβtotal. Put plainly: In vivo efficacy, Method 1: brain soluble Aβtotal lowering 4 h after a single oral dose, ELISA (Table 4a). Set-up: species or system mouse. As to conditions: dose 30 mg/kg oral dosing. From the text:
To determine whether acute administration of an Aβ42 lowering agent would reduce Aβ42 levels in vivo, non-transgenic rodents, e.g. mice or rats were used. Alternatively, two to three month old Tg2576 mice expressing APP695 containing the “Swedish” variant can be used or a transgenic mouse model developed by Dr. Fred Van Leuven (K.U. Leuven, Belgium) and co-workers, with neuron-specific expression of a clinical mutant of the human amyloid precursor protein [V717I] (Moechars et al., 1999 J. Biol. Chem. 274, 6483). Young transgenic mice have high levels of Aβ in the brain but no detectable Aβ deposition. At approximately 6-8 months of age, the transgenic mice start to display spontaneous, progressive accumulation of β-amyloid (Aβ) in the brain, eventually resulting in amyloid plaques within the subiculum, hippocampus and cortex. Animals treated with the Aβ42 lowering agent were examined and compared to those untreated or treated with vehicle and brain levels of soluble Aβ42 and total Aβ would be quantitated by standard techniques, for example, using ELISA. Treatment periods varied from hours (h) to days and were adjusted based on the results of the Aβ42 lowering once a time course of onset of effect could be established.
A typical protocol for measuring Aβ42 lowering in vivo is shown but it is only one of many variations that could be used to optimize the levels of detectable Aβ. For example, Aβ42 lowering compounds were formulated in 20% of Captisol® (a sulfobutyl ether of β-cyclodextrin) in water or 20% hydroxypropyl cyclodextrin. The Aβ42 lowering agents were administered as a single oral dose or by any acceptable route of administration to overnight fasted animals. After 4 h, the animals were sacrificed and Aβ42 levels were analysed.
Blood was collected by decapitation and exsanguinations in EDTA-treated collection tubes. Blood was centrifuged at 1900 g for 10 minutes (min) at 4° C. and the plasma recovered and flash frozen for later analysis. The brain was removed from the cranium and hindbrain. The cerebellum was removed and the left and right hemisphere were separated. The left hemisphere was stored at −18° C. for quantitative analysis of test compound levels. The right hemisphere was rinsed with phosphate-buffered saline (PBS) buffer and immediately frozen on dry ice and stored at −80° C. until homogenization for biochemical assays.
Mouse brains were resuspended in 10 volumes of 0.4% DEA (diethylamine)/50 mM NaCl pH 10 (for non-transgenic animals) or 0.1% 3-[(3-cholamidopropyl)-dimethyl-ammonio]-1-propanesulfonate (CHAPS) in tris buffered saline (TBS) (for transgenic animals) containing protease inhibitors (Roche-11873580001 or 04693159001) per gram of tissue, e.g. for 0.158 g brain, add 1.58 ml of 0.4% DEA. All samples were sonicated for 30 seconds on ice at 20% power output (pulse mode). Homogenates were centrifuged at 221.300×g for 50 min. The resulting high speed supernatants were then transferred to fresh tubes and were optionally further purified before the next step. A portion of the supernatant was neutralized with 10% 0.5 M Tris-HCl and this was used to quantify Aβtotal.
To quantify the amount of Aβ42 in the soluble fraction of the brain homogenates, commercially available Enzyme-Linked-Immunosorbent-Assay (ELISA) kits were used (e.g. Innotest® β-Amyloid(1-42), Innogenetics N.V., Ghent, Belgium). The Aβ42 ELISA was performed using the plate provided with the kit only. Briefly, the standards (a dilution of synthetic Aβ1-42) were prepared in 1.5 ml Eppendorf tube in Ultraculture, with final concentrations ranging from 25000 to 1.5 pg/ml. Samples, standards and blanks (60 μl) were added to the anti-Aβ42-coated plate (the capture antibody selectively recognizes the C-terminal end of the antigen). The plate was allowed to incubate overnight at 4° C. in order to allow formation of the antibody-amyloid complex. […]

Experiment [2] relates to Aβtotal. In words: γ-secretase-modulating activity, Method 1: Aβtotal sandwich ELISA in supernatant of SKNBE2 cells carrying APP 695-wild type. As to conditions: Table 3a, 18 h, averaged IC50 values. It is filed as cell-based. On the procedure:
as §1, §2, §3
To quantify the amount of Aβtotal in the cell supernatant, samples and standards were added to a 6E10-coated plate. The plate was allowed to incubate overnight at 4° C. in order to allow formation of the antibody-amyloid complex. Following this incubation and subsequent wash steps a selective anti-Aβ-antibody conjugate (biotinylated 4G8) was added and incubated for a minimum of 1 h in order to allow formation of the antibody-Amyloid-antibody-complex. After incubation and appropriate wash steps, a Streptavidine-Peroxidase-Conjugate was added, followed 30 minutes later by an addition of Quanta Blu fluorogenic peroxidase substrate according to the manufacturer's instructions (Pierce Corp., Rockford, Ill.).

In the case of `COc1cc(-c2nc(C)c(-c3ccccc3)[nH]2)ccc1-n1cnc(C)c1` [Compound 11], the values for the IC50 in the experiment on Aβ42 (Homo sapiens) and with Aβtotal [2] (Homo sapiens) were 110 nM and over 3000 nM, respectively. Moreover, the “Aβtotal (% Ctrl) _Mean” value with Aβtotal [1] is recorded as −4 % Ctrl.

`COc1cc(-c2nc(Nc3cccc(C(F)(F)F)c3)n(C)n2)ccc1-n1cnc(C)c1` [Compound 146]: the “Aβtotal (% Ctrl) _Mean” value with Aβtotal [1] stood at 14 % Ctrl.

On to `COc1cc(-c2nc(Nc3ccc(F)cc3C(F)(F)F)n(C)n2)ccc1-n1cnc(C)c1` [Compound 15], for which the IC50 with Aβ42 is 250 nM; in the experiment on Aβtotal [2], 11500 nM. In addition, in the experiment with Aβtotal [1], the “Aβtotal (% Ctrl) _Mean” value was found to be 3 % Ctrl.

In the case of `COc1cc(-c2nc(-c3ccccc3)n(C)n2)ccc1-n1cnc(C)c1` [Compound 9], the IC50 is 790 nM in the experiment on Aβ42 (Homo sapiens) and over 30000 nM in the experiment with Aβtotal [2] (Homo sapiens). For the same molecule, in the experiment with Aβtotal [1], the “Aβtotal (% Ctrl) _Mean” value was determined as 0 % Ctrl.
